Drawing on DBAASP, this text covers MIC for 4 molecules.

Converted amounts (≈) assume the structure as drawn. “And” between values parts separate entries of the source, which are not always exact repeats. Identical values can stand only once.

Some test systems named below: Pseudomonas aeruginosa; Candida tropicalis; Staphylococcus aureus; Escherichia coli; Staphylococcus aureus MR; Aspergillus fumigatus; Enterobacter cloacae; Bacillus subtilis 168.
Holding throughout (assay): ≥ marks a high value that may be exact or a test limit, other limits are often not marked, values filed in µg/mL are converted to µM
For experiment [1], the system named is Escherichia coli ATCC 25922.
The subject of experiment [2] is Lichtheimia corymbifera NRRL 6251.
The subject of experiment [3] is Staphylococcus epidermidis ATCC 51625.
Experiment [4] has as its system Pseudomonas aeruginosa ATCC 19660.
Experiment [5] concerns Candida krusei NRRL Y-27803.
Experiment [6] concerns Staphylococcus aureus ATCC 25923.
Experiment [7] concerns Staphylococcus aureus ATCC 33592.
Experiment [8] concerns Pseudomonas aeruginosa ATCC 27853.
The subject of experiment [9] is Fusarium solani NRRL 28548.
Experiment [10] relates to Klebsiella pneumoniae ATCC 10031.
Experiment [11] relates to Acinetobacter baumannii ATCC 17978.
In experiment [12] the test system is Candida albicans NRRL Y-326.
Experiment [13] deals with Aspergillus flavus ATCC MYA-3651.
Experiment [14] relates to Candida parapsilosis NRRL Y-1761.
Experiment [15] has as its system Mucor circinelloides NRRL 3631.
For experiment [16], the system named is Pseudomonas aeruginosa ATCC 10145.
Experiment [17] concerns Cryptococcus neoformans ATCC 32045.
The test system of experiment [18] is Escherichia coli ATCC 2592.
In experiment [19] the test system is Candida albicans ATCC 10231.
Experiment [20] concerns Staphylococcus aureus ATCC 33591.
Experiment [21] concerns Staphylococcus aureus USA 200.
In experiment [22] the test system is Klebsiella pneumoniae ATCC 13883.
The subject of experiment [23] is Staphylococcus aureus UAMS-1.
The test system of experiment [24] is Staphylococcus aureus Newman.
For experiment [25], the system named is Candida tropicalis ATCC 13803.
The subject of experiment [26] is Staphylococcus epidermidis 1457.
The test system of experiment [27] is Staphylococcus aureus MU50.
Experiment [28] deals with Pseudomonas aeruginosa PAO1.
Experiment [29] has as its system Staphylococcus aureus USA 300.
Experiment [30] relates to Staphylococcus aureus USA 400.
Experiment [31] deals with Candida glabrata ATCC 2001.

For orientation: MIC means the lowest concentration that inhibits growth of the organism. A low value points to inhibition by little substance. For `CSCC[C@@H]1NC(=O)[C@H](CC(C)C)NC(=O)[C@H](CCCNC(=N)N)NC(=O)[C@H](CO)NC(=O)[C@@H]2CSSC[C@@H]3NC(=O)[C@H](CO)NC(=O)CNC(=O)[C@H]([C@@H](C)O)NC(=O)[C@H](CSSC[C@H](N)C(=O)N[C@@H](CCCCN)C(=O)NCC(=O)N[C@@H](CCCCN)C(=O)NCC(=O)N[C@@H](C)C(=O)N[C@@H](CCCCN)C(=O)N2)NC(=O)[C@H](CSSC[C@@H](C(N)=O)NC(=O)[C@H](CCCCN)NC(=O)CNC(=O)[C@H](CO)NC(=O)[C@H](CCCNC(=N)N)NC3=O)NC(=O)[C@H](CC(=O)O)NC(=O)[C@H](Cc2ccc(O)cc2)NC1=O` [CKGKGAKCSRLMYDCCTGSCRSGKC], the MIC against Pseudomonas aeruginosa was greater than 500 µM; in the experiment on Candida tropicalis it was no less than 39.8 µM; with Staphylococcus aureus, greater than 500 µM; with Escherichia coli it was greater than 500 µM.
Turning to `CC[C@H](C)[C@H](NC(=O)[C@H](CCCCN)NC(=O)[C@H](C)NC(=O)[C@H](CCCN=C(N)N)NC(=O)[C@H](CC(C)C)NC(=O)[C@H](CCCN=C(N)N)NC(=O)[C@@H](NC(=O)[C@H](CCCCN)NC(=O)[C@@H](NC(=O)[C@H](CCCCN)NC(=O)[C@H](C)NC(=O)[C@H](CCCN=C(N)N)NC(=O)[C@H](CC(C)C)NC(=O)[C@H](CCCCN)NC(=O)[C@@H](N)Cc1ccccc1)[C@@H](C)CC)C(C)C)C(=O)N[C@@H](CCCCN)C(=O)N[C@@H](CC(C)C)C(N)=O` [FKLRAKIKVRLRAKIKL], the MIC in experiment [1] stood at 2.88 µM (≈ 6 µg/mL); in experiment [2] it was 0.961 µM (≈ 2 µg/mL); in [3] it was 1.92 µM (≈ 4 µg/mL); in experiment [4], 15.4 µM (≈ 32 µg/mL); against Staphylococcus aureus MR it was 3.84 µM (≈ 8 µg/mL); in experiment [5] it was 30.7 µM (≈ 64 µg/mL). For the same molecule, the MIC in experiment [6] was 2.88 µM (≈ 6 µg/mL); in [7] it was 3.84 µM (≈ 8 µg/mL); in experiment [8], 2.88 µM and 7.69 µM; in experiment [9] it was 0.961 µM (≈ 2 µg/mL); in experiment [10] it was 15.4 µM (≈ 32 µg/mL); in experiment [11], 7.69 µM (≈ 16 µg/mL). The MIC in experiment [12] was 30.7 µM (≈ 64 µg/mL); in [13], no less than 61.5 µM; in the experiment on Staphylococcus aureus, 2.72 µM (≈ 5.65 µg/mL); in [14], 30.7 µM (≈ 64 µg/mL); in the experiment on Aspergillus fumigatus, no less than 43.5 µM; in [15] it was no less than 61.5 µM. Also, the MIC with Enterobacter cloacae came to 2.72 µM (≈ 5.65 µg/mL).
Turning to `CC(C)C[C@H](NC(=O)[C@H](CCCCN)NC(=O)[C@H](CCCCN)NC(=O)[C@H](CC(C)C)NC(=O)[C@H](CC(C)C)NC(=O)[C@H](CCCCN)NC(=O)[C@H](CCCCN)NC(=O)[C@H](CC(C)C)NC(=O)[C@H](CC(C)C)NC(=O)[C@H](CCCCN)NC(=O)[C@H](CCCCN)NC(=O)[C@H](CC(C)C)NC(=O)[C@H](CC(C)C)NC(=O)[C@H](CCCCN)NC(=O)[C@H](CCCCN)NC(=O)[C@H](CC(C)C)NC(=O)[C@H](CC(C)C)NC(=O)[C@H](CCCCN)NC(=O)[C@H](CCCCN)NC(=O)[C@H](CC(C)C)NC(=O)[C@H](CC(C)C)NC(=O)[C@H](CCCCN)NC(=O)[C@H](CCCCN)NC(=O)[C@H](CC(C)C)NC(=O)[C@H](CC(C)C)NC(=O)[C@H](CCCCN)NC(=O)[C@H](CCCCN)NC(=O)[C@@H](N)CC(C)C)C(=O)O` [LKKLLKKLLKKLLKKLLKKLLKKLLKKL], the MIC in experiment [16] is no less than 36.8 µM; in experiment [17], no less than 32.9 µM; in experiment [18], 25.9 µM (≈ 88 µg/mL); in [19], 104 µM (≈ 354 µg/mL); in experiment [20], no less than 73.6 µM.
Take `CC[C@H](C)[C@H](NC(=O)[C@@H](NC(=O)[C@@H]1CCCN1C(=O)[C@H](CC(C)C)NC(=O)[C@@H](NC(=O)[C@@H](N)CO)[C@@H](C)CC)[C@@H](C)O)C(=O)N[C@H](C(=O)N[C@@H](CO)C(=O)N[C@@H](Cc1ccccc1)C(=O)N[C@@H](CC(C)C)C(=O)N[C@@H](CO)C(=O)N[C@@H](CCCCN)C(=O)N[C@H](C(=O)N[C@@H](Cc1ccccc1)C(N)=O)C(C)C)C(C)C` [SILPTIVSFLSKVF]: the MIC in [21] is 3.1 µM (≈ 4.8 µg/mL); in experiment [1], greater than 50 µM; in experiment [22] it was no less than 50 µM; in experiment [23], 25 µM (≈ 38.7 µg/mL); in [24] it was 3.1 µM (≈ 4.8 µg/mL); in experiment [25] it was 3.1 µM (≈ 4.8 µg/mL). In addition, the minimal inhibitory concentration (MIC) in experiment [26] is 3.1 µM (≈ 4.8 µg/mL); in experiment [19] it was 12.5 µM (≈ 19.4 µg/mL); in [27] it was 6.2 µM (≈ 9.61 µg/mL); in experiment [28], greater than 50 µM; in experiment [29], 3.1 µM (≈ 4.8 µg/mL); in experiment [30], 3.1 µM (≈ 4.8 µg/mL). Besides, the MIC in the experiment with Bacillus subtilis 168 amounted to 6.3 µM (≈ 9.76 µg/mL); in [31] it was 12.5 µM (≈ 19.4 µg/mL).
